One molecule from US20230303491A1, “DONEPEZIL ETHER PALMITATE OR PHARMACEUTICALLY ACCEPTABLE SALT THEREOF” (CHONG KUN DANG PHARMACEUTICAL CORP., priority 2020, published 2023) can be followed below.

Structures are written as SMILES.

This data set can be described thus: Pharmacokinetic evaluation: donepezil concentration in plasma after intramuscular injection of solution phase compositions. It is filed as in vivo. As to conditions: SD rats; for release pattern: compared among DEP, DEM, DEPD, DEHD and DES formulations (40 mg/kg as donepezil) or with donepezil. How it is done:
The main ingredients of Table 1 above, castor oil, and benzyl benzoate were mixed according to the components and amounts of Table 2 below, and stirred at room temperature for 0.5 to 3 hours to prepare solution phase compositions.
Four male SD rats with an average weight of 300 g were intramuscularly injected with a dose of 4 mg/kg of donepezil in the formulation of donepezil (D) and 40 mg/kg of donepezil each in the DEP, DEM, DEPD, DEHD, and DES formulations, and the concentrations of donepezil in plasma samples of SD rats were analyzed using LC-MS/MS.

Take `CCCCCCCCCCCCCCOCC(=O)OC1=C(CC2CCN(Cc3ccccc3)CC2)Cc2cc(OC)c(OC)cc21` [DEP, 2-((1-benzylpiperidin-4-yl)methyl)-5,6-dimethoxy-1H-inden-3-yl 2-(tetradecyloxy) acetate]: the release pattern entry is given as “most preferred for the sustained-release composition”. Also, the “release of drug immediately after administration” value (D 4 mg/kg, DEP 40 mg/kg as donepezil) is “without rapid release of drug after administration”. In addition, the release pattern entry (listed as donepezil ether palmitate (DEP)) is given as “better release pattern than that of donepezil”.
